Data: patent US7645738B2, “18-membered nitrobenzyl- and aminobenzyl-substituted cyclohexadepsipeptides for controlling endoparasites and a process for their preparation” (Bayer Animal Health GmbH, priority 2003, dated 2010)

Columns and labels:
Haemonchus contortus = assay: In vivo nematode test Haemonchus contortus/sheep; conditions: sheep experimentally infected with Haemonchus contortus; applied orally and/or intravenously as pure active compound; complete cessation of egg excretion after treatment
Protocol: Haemonchus contortus/sheep
Sheep which had been experimentally infected with Haemonchus contortus were treated after the prepotency time of the parasite had elapsed. The active compounds were applied orally and/or intravenously as pure active compound.
(§1) The degree of effectiveness is determined by quantitatively counting the worm eggs which have been excreted with the faeces before and after the treatment.
(§2) A complete cessation of egg excretion after the treatment means that the worms have been aborted or damaged to such an extent that they no longer produce eggs (dosis effectiva).
(§3) Active compounds tested and effective dosage rates (dosis effectiva) can be seen from the table which follows.

[1] = system: Trichostrongylus colubriformis; assay: In vivo nematode test Trichostrongylus colubriformis/sheep; conditions: sheep experimentally infected with Trichostrongylus colubriformis; applied orally and/or intravenously as pure active compound; complete cessation of egg excretion after treatment
Protocol: Trichostrongylus colubriformis/sheep
Sheep which had been experimentally infected with Trichostrongylus colubriformis were treated after the prepotency time of the parasite had elapsed. The active compounds were applied orally and/or intravenously as pure active compound.
as §1, §2, §3

log P value from HPLC = type: physicochemical; conditions: 0.1% phosphoric acid/acetonitrile gradient
Protocol: HPLC (0.1% phosphoric acid/acetonitrile; gradient: 90/10 (1) 5%/min, 5/95 (6); flow rate: 1.5 mil/min; UV: 210 nm): Rt=12.57 min; log P value 3.58.

melting point [°C]	Compound	Effective dosage (dosis effectiva) (Haemonchus contortus) [mg/kg]	Effective dosage (dosis effectiva) [1] [mg/kg]	chromatographic logP (log P value from HPLC)
–	CCC(C)[C@H]1C(=O)O[C@H](Cc2ccc(N3CCOCC3)cc2)C(=O)N(C)[C@@H](C(C)CC)C(=O)O[C@H](C)C(=O)N(C)[C@@H](C)C(=O)O[C@H](C)C(=O)N1C (stereo partly drawn) [Example I-1, Cyclo(-N-methyl-L-alanyl-D-lactyl-N-methyl-L-isoleucyl-D-4-morpholino-phenyllactyl-N-methyl-L-isoleucyl-D-lactyl-)]	0.10	0.25	3.58
–	CCC(C)[C@H]1C(=O)O[C@H](Cc2ccc(NCCS(=O)(=O)CCO)cc2)C(=O)N(C)[C@@H](C(C)CC)C(=O)O[C@H](C)C(=O)N(C)[C@@H](C)C(=O)O[C@H](C)C(=O)N1C (stereo partly drawn) [Example I-2, Cyclo(-N-methyl-L-alanyl-D-lactyl-N-methyl-L-isoleucyl-D-4-(2-hydroxyethyl-sulphonyl-ethylamino-phenyl)lactyl-N-methyl-L-isoleucyl-D-lactyl-)]	0.10	–	–
–	CCC(C)[C@H]1C(=O)O[C@H](Cc2ccccc2)C(=O)N(C)[C@@H](C(C)CC)C(=O)O[C@H](C)C(=O)N(C)[C@@H](C)C(=O)O[C@H](C)C(=O)N1C (stereo partly drawn) [Example II-1, Cyclo(-N-methyl-L-alanyl-D-lactyl-N-methyl-L-isoleucyl-D-phenyllactyl-N-methyl-L-isoleucyl-D-lactyl-)]	–	–	4.23
122 to 126	CCC(C)[C@H]1C(=O)O[C@H](Cc2ccc([N+](=O)[O-])cc2)C(=O)N(C)[C@@H](C(C)CC)C(=O)O[C@H](C)C(=O)N(C)[C@@H](C)C(=O)O[C@H](C)C(=O)N1C (stereo partly drawn) [Example III-1, Cyclo(-N-methyl-L-alanyl-D-lactyl-N-methyl-L-isoleucyl-D-4-nitro-phenyllactyl-N-methyl-L-isoleucyl-D-lactyl-)]	–	–	–
–	CCC(C)C1C(=O)OC(Cc2ccccc2N)C(=O)N(C)C(C(C)CC)C(=O)OC(C)C(=O)N(C)C(C)C(=O)OC(C)C(=O)N1C [Example IV-1, Cyclo(-N-methyl-L-alanyl-D-lactyl-N-methyl-L-isoleucyl-D-2-amino-phenyllactyl-N-methyl-L-isoleucyl-D-lactyl-)]	0.05	–	–
–	CC[C@H](C)[C@H]1C(=O)O[C@H](Cc2cccc(N)c2)C(=O)N(C)[C@@H]([C@@H](C)CC)C(=O)O[C@H](C)C(=O)N(C)[C@@H](C)C(=O)O[C@H](C)C(=O)N1C [Example IV-2, Cyclo(-N-methyl-L-alanyl-D-lactyl-N-methyl-L-isoleucyl-D-3-amino-phenyllactyl-N-methyl-L-isoleucyl-D-lactyl-)]	0.05	0.25	–
